{"source": "patent US12233129B2", "about": "“Methods and compositions for the treatment of cancer” (priority 2019, dated 2025)", "key": {"HCT-116": {"system": "HCT-116", "experimental": "(§1) Besides the cell viability assay, we decided to measure the apoptotic activity in the above combination therapy.\n(§2) Cells were treated with 5-FU (5-100 μM) and etoposide (1-50 μM) along with VTD (30 and 100 μM respectively) in two different set of experiments for 24 hours.\n(§3) An MTT (3[4, 5-dimethylthiazol-2-yl]-2, 5-diphenyltetrazolium bromide) assay was performed to measure the viability of cells. Briefly, cells were seeded at a density of 10×10^3 cells per well in phenol-red free growth media. After 24 hours, cells were treated with various concentrations of VTD±5-FU or etoposide. After incubation, an MTT dye was added to the cells for 2-4 hours. The absorbance of samples was measured at 630 nm using an EXL808 absorption spectrophotometer (Biotek, Winooski). The viability of cells was calculated as % of control. Cell detachment and clonogenic survival assays were conducted as previously described. Early apoptosis, caspase-3, cleaved PARP and Sytox Red (Life Technology, NY, USA) were measured by the Accuri C6 flow cytometer system (BD Pharmingen, MD, USA).[54]\n(§4) (A-H) (A-C) HCT-116 and (D-F) LoVo were treated with VTD (10-300 μM) for 24, 48, and 72 hours. A suboptimal dose of Etoposide (ETO) ([…]) was added to cells for the last 24 hours only. The viability of cells was determined as % of control (untreated cells) using an MTT assay. […] (G-H) HCT-116 (G) and LoVo (H) cells were treated with VTD (10-200 μM) and a suboptimal dose of ETO (5 μM) for 24 hours. Cells were then stained with Annexin V apoptotic marker. […] (I-L) HCT-116 and LoVo cells were treated with different doses of 5-FU (5-100 μM, I-J) and ETO (1-50 μM, K-L) along with VTD (30 μM and 100 μM respectively) for 24 hours."}, "LoVo": {"system": "LoVo", "experimental": "as §1, §2, §3, §4"}, "[1]": {"system": "SW-48 (WT-p53) colon cancer cells", "assay": "Cell viability / clonogenic survival with and without mot-2 inhibitor MKT-077", "type": "cell-based, human", "design": "dose or concentration left out as unconfirmed", "experimental": "We decided to confirm whether VTD-induced tumor suppression is indeed mediated via the UBXN2A-mot-2-p53 axis (FIG. 18H). After initial verification with WB (FIG. 18A), HCT-116 (p53+/+ and p53 −/−) and LoVo were treated with VTD for 24, 48, and 72 hours (FIG. 18B-D). […] We defined this phenomenon as a delayed cytotoxic response, since it occurs through UBXN2A transcription, as previously described for other anti-cancer agents. […] In the second set of experiments, we treated two stable UBXN2A silenced clones of HCT-116 along with controls with VTD. […] Staurosporine-treated cells were used as a positive control (S4F). […] Finally, to understand the contribution of mot-2 to the anti-cancer mechanism of VTD, we used a mot-2 inhibitor known as MKT-077 [7] along with VTD in well-differentiated SW-48 (WT-p53) colon cancer cells for 72 hours. Due to the critical role of mot-2 in the mitochondria, we could not use a silencing strategy for mot-2 in this set of experiments.\nFIG. 18: Veratridine (VTD) functions via the UBXN2A-mot-2-p53 axis. (A) WB confirmed the presence and the absence of p53 protein in HCT-116 p53^(+/+) and HCT-116 p53^(−/−) cancer cell lines, respectively. […] (F) In another set of experiments, UBXN2A-silenced cells were treated with VTD (100, 200, and 300 μM) for 24 hours. Cells were then labelled with Sytox Red followed by flow cytometry analysis. […] (G) SW48 well-differentiated colon cancer cells with WT-p53 were treated with MKT-077 (5 mg/ml), an mot-2 inhibitor, along with VTD for 72 hours. […] (H) This flowchart recapped the sequence of proteins which activate and function upon VTD exposure to decrease cell viability. The data is shown as mean±SEM of three independent experiments (n=3) in triplicate where *p<0.05 using Benferroni's modified student's t-test."}, "[2]": {"details": "5-FU 5-100 μM along with VTD 100 μM, 24 hours"}, "[3]": {"details": "VTD 10-300 μM 24, 48, 72 hours plus suboptimal etoposide 5 μM for the last 24 hours"}, "[4]": {"details": "etoposide 1-50 μM along with VTD 30 μM, 24 hours"}, "[5]": {"details": "higher concentrations of VTD with etoposide 5 μM"}, "[6]": {"details": "low doses of VTD with etoposide, antagonistic"}}, "note": "“Also recorded” adds a separate entry of the source. Where two headings read alike, the source gives them in different places."}
{"smiles": "COc1ccc(C(=O)O[C@H]2CC[C@@]3(C)[C@@H]4CC[C@H]5[C@]6(O)C[C@H](O)[C@@]7(O)[C@@H](CN8C[C@@H](C)CC[C@H]8[C@@]7(C)O)[C@]6(O)C[C@@]53O[C@]24O)cc1OC", "note": "[VTD, Veratridine]", "values": [{"measurement": "combination index (CI)", "setting": "HCT-116; 5-FU 75 μM combined with 100 μM VTD", "result": 0.165}, {"measurement": "combination index (CI)", "setting": "HCT-116; 5-FU 100 μM combined with 100 μM VTD", "result": 0.109}, {"measurement": "cell viability (MTT), 5-FU effect enhanced by VTD", "setting": "HCT-116; [2]", "result": "significantly enhanced the 5-FU and etoposide effects on cell viability"}, {"measurement": "combination index (CI)", "setting": "HCT-116; VTD 30 μM with etoposide 5 μM", "result": 0.516}, {"measurement": "cell viability (MTT), combination", "setting": "HCT-116; [3]", "result": "significantly potentiates the cytotoxic effect of VTD"}, {"measurement": "cell viability (MTT), etoposide effect enhanced by VTD", "setting": "HCT-116; [4]", "result": "significantly enhanced the 5-FU and etoposide effects on cell viability"}, {"measurement": "combination index (CI)", "setting": "HCT-116; [5]", "result": "≤ 0.4"}, {"measurement": "combination index (CI)", "setting": "HCT-116; [6]", "result": "> 1"}, {"measurement": "combination index (CI)", "setting": "LoVo; 5-FU 5 μM with 100 μM VTD", "result": 0.32}, {"measurement": "cell viability (MTT), 5-FU effect enhanced by VTD", "setting": "LoVo; [2]", "result": "significantly enhanced the 5-FU and etoposide effects on cell viability"}, {"measurement": "cell viability (MTT), combination", "setting": "LoVo; [3]", "result": "significantly potentiates the cytotoxic effect of VTD"}, {"measurement": "combination index (CI)", "setting": "LoVo; etoposide 1 μM with 30 μM VTD", "result": 0.275}, {"measurement": "VTD concentration at which VTD and etoposide start to act synergistically", "setting": "LoVo; etoposide 5 μM", "result": 100, "unit": "µM"}, {"measurement": "cell viability (MTT), etoposide effect enhanced by VTD", "setting": "LoVo; [4]", "result": "significantly enhanced the 5-FU and etoposide effects on cell viability"}, {"measurement": "combination index (CI)", "setting": "LoVo; [5]", "result": "≤ 0.4"}, {"measurement": "combination index (CI)", "setting": "LoVo; [6]", "result": "> 1"}, {"measurement": "cell viability / colony number", "setting": "[1]; VTD alone, 72 hours", "result": "significantly decreased cell viability in a dose-dependent manner; also recorded: signifcantly decreases the colony number"}, {"measurement": "cell viability / colony number", "setting": "[1]; VTD with mot-2 inhibitor MKT-077, 72 hours", "result": "no significant effect on cell viability"}]}
